Experimental data taken from ChEMBL document CHEMBL5236667, “Synthesis of pyrrolo[3,2-d]pyrimidineone derivatives as novel FXa inhibitors” (Bioorg Med Chem Lett, 2023).
Active and inactive are the calls of the source. The calls are words filed in the database; no cut-off is given here.

What was measured:
[1] = test system: Rattus norvegicus; experiment: Antithrombotic activity in […]-induced venous thrombosis rat model assessed as reduction in thrombus weight at 1 mg/kg (reference value: 7.79 +/- 1.62 mg); assay type: functional
[2] = test system: Rattus norvegicus; experiment: Antithrombotic activity in […]-induced venous thrombosis rat model assessed as thrombus inhibition rate at 1 mg/kg relative to control; assay type: functional
[3] = test system: Rattus norvegicus; experiment: Antithrombotic activity in […]-induced venous thrombosis rat model assessed as reduction in thrombus weight at 0.5 mg/kg (reference value: 9.7 +/- 1.62 mg); assay type: functional
[4] = test system: Rattus norvegicus; experiment: Antithrombotic activity in […]-induced venous thrombosis rat model assessed as thrombus inhibition rate at 0.5 mg/kg relative to control; assay type: functional
[5] = species on record: Oryctolagus cuniculus; experiment: Anticoagulant activity in rabbit plasma assessed as T/C ratio of prothrombin time (reference value: 1); assay type: functional
[6] = molecular target: T1, Coagulation factor X (Homo sapiens, UniProt P00742); experiment: Inhibition of factor Xa (unknown origin) assessed as residual enzymatic activity at 20 nM
T1 sequence (P00742 41-179 limits assumed): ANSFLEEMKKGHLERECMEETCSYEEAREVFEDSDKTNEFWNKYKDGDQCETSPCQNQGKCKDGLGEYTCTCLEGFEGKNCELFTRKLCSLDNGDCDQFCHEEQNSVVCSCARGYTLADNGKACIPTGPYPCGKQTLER
T1 sequence (P00742 235-488 limits assumed): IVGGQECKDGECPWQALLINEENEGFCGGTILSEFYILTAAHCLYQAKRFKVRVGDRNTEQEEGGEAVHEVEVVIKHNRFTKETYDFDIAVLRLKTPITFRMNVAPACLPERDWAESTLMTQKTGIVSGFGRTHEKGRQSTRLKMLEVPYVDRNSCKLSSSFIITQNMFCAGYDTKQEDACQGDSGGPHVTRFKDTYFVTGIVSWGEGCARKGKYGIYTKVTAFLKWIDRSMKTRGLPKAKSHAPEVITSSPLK

[7] = molecular target: T1, Coagulation factor X; experiment: Inhibition of factor Xa (unknown origin)
[8] = molecular target: T1, Coagulation factor X; experiment: Potency index, ratio of rivaroxaban IC50 to test compound IC50 for inhibition of factor Xa (unknown origin)
[9] = species on record: Oryctolagus cuniculus; experiment: Anticoagulant activity in rabbit plasma assessed as increase in prothrombin time at 20 to 62500 nM; assay type: functional; details: dose 20-62500 nM
[10] = test system: Rattus norvegicus; experiment: Antithrombotic activity in FlC3-induced venous thrombosis rat model assessed as reduction in thrombus weight at 1 mg/kg (reference value: 9.7 +/- 1.62 mg); assay type: functional
[11] = test system: Rattus norvegicus; experiment: Antithrombotic activity in […]-induced venous thrombosis rat model assessed as reduction in thrombus weight at 2 mg/kg (reference value: 9.7 +/- 1.62 mg); assay type: functional
[12] = test system: Rattus norvegicus; experiment: Antithrombotic activity in […]-induced venous thrombosis rat model assessed as thrombus inhibition rate at 2 mg/kg relative to control; assay type: functional

| SMILES | Activity [1] [mg] | inhibition in vivo at 1 mg/kg [2] [%] | Activity [3] [mg] | inhibition in vivo at 0.5 mg/kg [4] [%] | T/C [5] | Activity [6] [%] | IC50 [7] [nM] | Ratio IC50 [8] | Activity [9] | Activity [10] [mg] | Activity [11] [mg] | inhibition in vivo at 2 mg/kg [12] [%] |
| --- | --- | --- | --- | --- | --- | --- | --- | --- | --- | --- | --- | --- |
| COc1ccc(-n2nc(C(N)=O)c3c2C(=O)N(c2ccc(N4CCCCC4=O)cc2)CC3)cc1 [APIXABAN] | 3.24 | 58 | 3.33 | 66 | – | – | – | – | – | – | – | – |
| COc1ccc(-n2cc(C(N)=O)c3ncn(-c4ccc(N5CCOCC5=O)cc4)c(=O)c32)cc1 | 2.73 | 65 | 5.36 | 45 | 1.99 | 46.7 | 1.57 | 9 | Active | 3.05 | 2.6 | 73 |
| COc1ccc(-n2cc(C#N)c3ncn(-c4ccc(N5CCC[C@H]5C(N)=O)cc4)c(=O)c32)cc1 | 3.65 | 53 | – | – | 1.67 | 45.8 | 3.69 | 4 | – | – | – | – |
| COc1ccc(-n2cc(C#N)c3ncn(-c4ccc(N5CCOCC5=O)cc4)c(=O)c32)cc1 | – | – | – | – | 1.88 | 59.8 | – | – | Active | – | – | – |
| O=C(NC[C@H]1CN(c2ccc(N3CCOCC3=O)cc2)C(=O)O1)c1ccc(Cl)s1 [RIVAROXABAN] | – | 75 | – | – | 2.03 | 45.8 | – | – | – | 2.41 | – | – |
